For 21 compounds, Emax and EC50 results are on record in patent US8846951B2 (AbbVie Inc., priority 2009, dated 2014).

Where two headings read alike, the source gives them in different places. Bounds are passed on as bounds.

For one assay, the target named is T1, 5HT2B receptors (Homo sapiens, UniProt P41595).
T1 construct: expressed in transfected cells; host or cells: CHO-K1 cells
As to the kind of experiment: Human 5-HT2B functional high throughput screening assay in CHO-K1 cells (calcium flux). It is filed as cell-based. The conditions noted are these: for EC50: CHO-K1 cells, calcium flux. The method, boiled down: (§1)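 FLIPR calcium readout, ex 480/em 530 nm, 25 °C, 3 min post-addition; agonist response normalized to serotonin, 4-parameter fit → EC50, Emax (% serotonin). Cells: frozen CHO-K1 stable lines, serum-free overnight, Ca4 dye + 2.5 mM probenecid, 60 min RT dark.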
In general terms: A change in cytosolic calcium serves as a functional read-out for many receptors and channels.

A further assay deals with T2, 5HT2C receptors (Homo sapiens, UniProt P28335).
T2 sequence (P28335 33-458): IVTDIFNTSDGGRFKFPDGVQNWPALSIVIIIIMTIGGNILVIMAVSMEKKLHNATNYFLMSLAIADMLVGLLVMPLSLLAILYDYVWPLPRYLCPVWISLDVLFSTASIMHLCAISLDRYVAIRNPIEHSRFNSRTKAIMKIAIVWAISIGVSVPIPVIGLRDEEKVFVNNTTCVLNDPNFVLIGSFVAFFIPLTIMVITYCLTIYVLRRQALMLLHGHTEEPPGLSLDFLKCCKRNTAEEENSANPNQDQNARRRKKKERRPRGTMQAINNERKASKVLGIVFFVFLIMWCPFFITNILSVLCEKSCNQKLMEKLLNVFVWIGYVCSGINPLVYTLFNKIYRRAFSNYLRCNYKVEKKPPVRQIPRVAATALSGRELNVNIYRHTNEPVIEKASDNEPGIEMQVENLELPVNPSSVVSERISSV
As to the kind of experiment: Human 5-HT2C functional high throughput screening assay in CHO-K1 cells (calcium flux). It is filed as cell-based. On the set-up: expressed in transfected cells; host or cells: CHO-K1 cells. The following applies: for Emax: 5-HT2C, maximum functional response as percentage relative to the effect of serotonin; for EC50: CHO-K1 cells, calcium flux. An outline of the steps: as §1

The mark [1] stands for this setting: 5-HT2B, maximum functional response as percentage relative to the effect of serotonin.
[2] abbreviates: 5-HT2C agonist activity, read-out: EC50.
Where [3] appears, read: 5-HT2B agonist activity, read-out: EC50.

T1 sequence (P41595 whole entry): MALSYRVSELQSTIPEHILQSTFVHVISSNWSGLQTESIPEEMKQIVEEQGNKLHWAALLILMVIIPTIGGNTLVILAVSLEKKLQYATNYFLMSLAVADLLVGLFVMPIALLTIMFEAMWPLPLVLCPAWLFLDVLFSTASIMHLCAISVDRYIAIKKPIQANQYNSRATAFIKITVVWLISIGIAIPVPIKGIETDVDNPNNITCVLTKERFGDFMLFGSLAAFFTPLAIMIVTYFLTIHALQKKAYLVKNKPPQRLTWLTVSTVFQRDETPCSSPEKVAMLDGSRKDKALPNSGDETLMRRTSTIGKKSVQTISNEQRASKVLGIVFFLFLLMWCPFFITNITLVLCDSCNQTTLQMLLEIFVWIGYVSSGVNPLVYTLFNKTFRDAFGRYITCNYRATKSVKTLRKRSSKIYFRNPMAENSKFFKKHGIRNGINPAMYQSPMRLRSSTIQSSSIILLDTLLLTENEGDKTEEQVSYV

In general, Emax refers to the greatest response seen or fitted, relative to the assay's reference. Broadly, the EC50 is the midpoint of the concentration-response curve. In the case of `CCC(C)Oc1ccc2c(c1)C(=O)NC[C@@H]1CNC[C@@H]21` (relative stereo) [Example 165, Trans-8-sec-butoxy-1,2,3,3a,4,5-hexahydrobenzo[e]pyrrolo[3,4-c]azepin-6(10bH)-one], the Emax entry on 5HT2B receptors (setting [1]) is “inactive”; on 5HT2C receptors (CHO-K1), more than 120%. Further, the concentration giving a half-maximal response (EC50) was more than 10 µM on 5HT2B receptors (EC50, 5-HT2B agonist activity) and 80 nM at 5HT2C receptors (EC50, 5-HT2C agonist activity).
Regarding `C[C@H](O)c1cccc(-c2ccc3c(c2)C(=O)NC[C@H]2CN(C)C[C@H]32)c1` [Example 293, (3aS,10bS)-8-{3-[(1S)-1-Hydroxyethyl]phenyl}-2-methyl-2,3,3a,4,5,10b-hexahydropyrrolo[3,4-d][2]benzazepin-6(1H)-one], on 5HT2B receptors (setting [1]), the Emax entry was “inactive”. Besides, at 5HT2C receptors (setting [2]), the EC50 is 2 nM.
Take `COc1cccc(CCOc2ccc3c(c2)C(=O)NC[C@@H]2CNC[C@@H]32)c1` (relative stereo) [Example 174, Trans-8-(3-methoxyphenethoxy)-1,2,3,3a,4,5-hexahydrobenzo[e]pyrrolo[3,4-c]azepin-6(10bH)-one]: the concentration giving a half-maximal response (EC50) was more than 10 µM on 5HT2B receptors (setting [3]) and 30 nM at 5HT2C receptors (setting [2]). Moreover, the maximal response (Emax) result at 5HT2B receptors (setting [1]) is “inactive”; on 5HT2C receptors (CHO-K1, read-out: Emax), 110%.
Regarding `O=C1NC[C@@H]2CNC[C@H]2c2ccc(-c3ccsc3)cc21` (relative stereo) [Example 184, Trans-8-(thiophen-3-yl)-1,2,3,3a,4,5-hexahydrobenzo[e]pyrrolo[3,4-c]azepin-6(10bH)-one], the half-maximal effective concentration (EC50) on 5HT2B receptors (setting [3]) is more than 10 µM; on 5HT2C receptors (setting [2]), 0.3 nM. The Emax result is “inactive” on 5HT2B receptors (setting [1]) and more than 120% on 5HT2C receptors (CHO-K1, read-out: Emax).
For `CN1C[C@@H]2CCOc3ccc(Cl)cc3[C@H]2C1` [Example 234, (3aR,10bS)-9-Chloro-2-methyl-2,3,3a,4,5,10b-hexahydro-1H-[1]benzoxepino[4,5-c]pyrrole], the maximal response (Emax) on 5HT2B receptors (CHO-K1) is 70%; at 5HT2C receptors (CHO-K1), more than 120%. Moreover, the 50% effective concentration (EC50) at 5HT2B receptors (EC50, 5-HT2B agonist activity) is 0.01 µM; at 5HT2C receptors (EC50, 5-HT2C agonist activity), 10 nM.
As to `CN1C[C@H]2CNC(=O)c3cc(-c4cc(F)c(F)c(F)c4)ccc3[C@@H]2C1` (relative stereo) [Example 322, Trans-2-methyl-8-(3,4,5-trifluorophenyl)-2,3,3a,4,5,10b-hexahydropyrrolo[3,4-d][2]benzazepin-6(1H)-one], the figures for the EC50 at 5HT2B receptors (setting [3]) and at 5HT2C receptors (setting [2]) were more than 10 µM and 20 nM, respectively. Also, the Emax entry at 5HT2B receptors (setting [1]) was “inactive”; at 5HT2C receptors (CHO-K1, read-out: Emax) it was 80%.
The like results for `CN1C[C@H]2CNC(=O)c3cc(-c4cccc(C(C)(O)C(F)(F)F)c4)ccc3[C@@H]2C1` (relative stereo) [Example 185, Trans-2-methyl-8-(3-(1,1,1-trifluoro-2-hydroxypropan-2-yl)phenyl)-1,2,3,3a,4,5-hexahydrobenzo[e]pyrrolo[3,4-c]azepin-6(10bH)-one] were, in that order, more than 10 µM, 1 nM, “inactive” and 120%.
In the case of `O=C1NC[C@H]2CN(Cc3ccccc3)C[C@@H]2c2c(F)cc(F)cc21` [Example 105, (3aS,10bS)-2-Benzyl-8,10-difluoro-1,2,3,3a,4,5-hexahydrobenzo[c]pyrrolo[3,4-e]azepin-6(10bH)-one], the Emax entry on 5HT2B receptors (setting [1]) was “inactive”; at 5HT2C receptors (CHO-K1), more than 120%. Moreover, the EC50 on 5HT2B receptors (EC50, 5-HT2B agonist activity) was more than 10 µM; at 5HT2C receptors (EC50, 5-HT2C agonist activity), 20 nM.
Turning to `COc1ccc(CCOc2ccc3c(c2)C(=O)NC[C@@H]2CNC[C@@H]32)cc1` (relative stereo) [Example 175, Trans-8-(4-methoxyphenethoxy)-1,2,3,3a,4,5-hexahydrobenzo[e]pyrrolo[3,4-c]azepin-6(10bH)-one], the results for the EC50 at 5HT2B receptors (setting [3]) and at 5HT2C receptors (setting [2]) were more than 10 µM and 6 nM, respectively. Moreover, the maximal response (Emax) result was “inactive” at 5HT2B receptors (setting [1]) and more than 120% on 5HT2C receptors (CHO-K1, read-out: Emax).
As for `CCS(=O)(=O)c1cccc(-c2ccc3c(c2)C(=O)NC[C@@H]2CN(C)C[C@@H]32)c1` (relative stereo) [Example 255, Trans-8-(3-(ethylsulfonyl)phenyl)-2-methyl-1,2,3,3a,4,5-hexahydrobenzo[c]pyrrolo[3,4-e]azepin-6(10bH)-one], the EC50 on 5HT2B receptors (setting [3]) was more than 10 µM; at 5HT2C receptors (setting [2]), 30 nM. In addition, the Emax entry is “inactive” at 5HT2B receptors (setting [1]) and 90% on 5HT2C receptors (CHO-K1, read-out: Emax).
In the same order, the values of `CC(C)C(O)c1cccc(-c2ccc3c(c2)C(=O)NC[C@H]2CN(C)C[C@H]32)c1` (stereo partly drawn) [Example 304, (3aS,10bS)-8-[3-(1-Hydroxy-2-methylpropyl)phenyl]-2-methyl-2,3,3a,4,5,10b-hexahydropyrrolo[3,4-d][2]benzazepin-6(1H)-one] are more than 10 µM, 0.7 nM, “inactive” and 100%.
Turning to `O=C1NC[C@H]2CNC[C@@H]2c2ccc(OCc3ccccc3F)cc21` [Example 179, (3aR,10bS)-8-(2-Fluorobenzyloxy)-1,2,3,3a,4,5-hexahydrobenzo[e]pyrrolo[3,4-e]azepin-6(10bH)-one], the results for the Emax entry at 5HT2B receptors (setting [1]) and at 5HT2C receptors (CHO-K1) were “inactive” and more than 120%, respectively. Moreover, the EC50 at 5HT2B receptors (EC50, 5-HT2B agonist activity) is more than 10 µM; at 5HT2C receptors (EC50, 5-HT2C agonist activity) it was 0.3 nM.
As to `COc1cccc(-c2ccc3c(c2)C(=O)NC[C@@H]2CN(C)C[C@@H]32)c1` (relative stereo) [Example 133, Trans-8-(3-methoxyphenyl)-2-methyl-1,2,3,3a,4,5-hexahydrobenzo[e]pyrrolo[3,4-c]azepin-6(10bH)-one], the EC50 on 5HT2B receptors (setting [3]) is more than 10 µM. Also, the Emax result at 5HT2B receptors (setting [1]) is “inactive”; on 5HT2C receptors (CHO-K1, read-out: Emax), more than 120%.
On to `COc1cccc(-c2ccc3c(c2)C(=O)NC[C@H]2CN(C)C[C@H]32)c1` [Example 160, (3aS,10bS)-8-(3-Methoxyphenyl)-2-methyl-1,2,3,3a,4,5-hexahydrobenzo[e]pyrrolo[3,4-c]azepin-6(10bH)-one], for which the EC50 at 5HT2B receptors (setting [3]) was more than 10 µM; on 5HT2C receptors (setting [2]), 0.8 nM. Besides, the maximal effect (Emax) entry is “inactive” on 5HT2B receptors (setting [1]) and more than 120% on 5HT2C receptors (CHO-K1, read-out: Emax).
In the case of “Trans-8-(3-chloro-1H-pyrrol-2-yl)-2-methyl-2,3,3a,4,5,10b-hexahydropyrrolo[3,4-d][2]benzazepin-6(1H)-one and Trans-8-(5-chloro-1H-pyrrol-2-yl)-2-methyl-2,3,3a,4,5,10b-hexahydropyrrolo[3,4-d][2]benzazepin-6(1H)-one [Example 386]”, the EC50 is more than 10 µM on 5HT2B receptors (setting [3]) and 20 nM on 5HT2C receptors (setting [2]). Also, the Emax entry is “inactive” at 5HT2B receptors (setting [1]) and 65% at 5HT2C receptors.
Take `Fc1cc(F)c2c(c1)[C@H]1CNC[C@@H]1CCO2` (relative stereo) [Example 283, Trans-7,9-difluoro-2,3,3a,4,5,10b-hexahydro-1H-[1]benzoxepino[4,5-c]pyrrole]: the Emax came out at 50% on 5HT2B receptors (CHO-K1) and 80% on 5HT2C receptors (CHO-K1). The EC50 at 5HT2B receptors (EC50, 5-HT2B agonist activity) was 0.06 µM; at 5HT2C receptors (EC50, 5-HT2C agonist activity), 800 nM.
Regarding `Fc1ccc(F)c2c1OCC[C@H]1CNC[C@H]21` (relative stereo) [Example 289, Trans-7,10-difluoro-2,3,3a,4,5,10b-hexahydro-1H-[1]benzoxepino[4,5-c]pyrrole], the Emax on 5HT2B receptors (CHO-K1) was 95%; on 5HT2C receptors (CHO-K1), 90%. The EC50 worked out at 0.1 µM on 5HT2B receptors (EC50, 5-HT2B agonist activity) and 7 nM on 5HT2C receptors (EC50, 5-HT2C agonist activity).
For the compound `CC(C)C(=O)N1CC[C@@H]2CNC[C@H]2c2ccccc21` (relative stereo) [Example 333, 1-[Trans-2,3,3a,4,5,10b-hexahydropyrrolo[3,4-d][1]benzazepin-6(1H)-yl]-2-methylpropan-1-one], the half-maximal effective concentration (EC50) was determined as 2 µM at 5HT2B receptors (setting [3]) and 300 nM on 5HT2C receptors (setting [2]). Besides, the maximal response (Emax) at 5HT2B receptors (CHO-K1) is 40%; on 5HT2C receptors (CHO-K1), 90%.
On to `CN1C[C@H]2CCN(C)c3ccc(Cl)cc3[C@@H]2C1` (relative stereo) [Example 395, Trans-9-chloro-2,6-dimethyl-1,2,3,3a,4,5,6,10b-octahydropyrrolo[3,4-d][1]benzazepine], for which the Emax at 5HT2B receptors (CHO-K1) worked out at 65%; at 5HT2C receptors (CHO-K1), 50%. Besides, the concentration giving a half-maximal response (EC50) on 5HT2B receptors (EC50, 5-HT2B agonist activity) worked out at 0.08 µM; on 5HT2C receptors (EC50, 5-HT2C agonist activity) it was 500 nM.
Consider `CC(C)Cc1ccc2c(c1)C(=O)NC[C@@H]1CN(C)C[C@@H]21` (relative stereo) [Example 244, Trans-8-isobutyl-2-methyl-1,2,3,3a,4,5-hexahydrobenzo[e]pyrrolo[3,4-c]azepin-6(10bH)-one], for which the results for the Emax entry at 5HT2B receptors (setting [1]) and at 5HT2C receptors (CHO-K1) were “inactive” and 80%, respectively. Moreover, the half-maximal effective concentration (EC50) at 5HT2B receptors (EC50, 5-HT2B agonist activity) was more than 10 µM; at 5HT2C receptors (EC50, 5-HT2C agonist activity), 100 nM.
For the compound `COc1ccc(-c2ccc3c(c2)C(=O)NC[C@@H]2CN(C)C[C@@H]32)cc1F` (relative stereo) [Example 316, Trans-8-(3-fluoro-4-methoxyphenyl)-2-methyl-2,3,3a,4,5,10b-hexahydropyrrolo[3,4-d][2]benzazepin-6(1H)-one], the EC50 is more than 10 µM on 5HT2B receptors (setting [3]) and 7 nM at 5HT2C receptors (setting [2]). Besides, the Emax result at 5HT2B receptors (setting [1]) was “inactive”; on 5HT2C receptors (CHO-K1, read-out: Emax) it was 80%.
